Where two headings read alike, the source gives them in different places.
Key:
[1] = test system: HSV-1; test: HSV-1 antiviral assay, cytopathic effect (CPE) inhibition in vero cells; type: cell-based; conditions: 4 days, read-out: in vitro EC50 against HSV-1
Method: (§1) Cytopathic Effect (CPE) Inhibition Assay
(§2) Cell culture—vero cells were cultured in Dulbecco's Modified Eagle Medium (DMEM) supplemented with 10% fetal bovine serum and 100 units/mL penicillin and streptomycin. The cells were passaged 2-3 times per week to maintain sub-confluent densities.
HSV-1 antiviral assay—vero cells were seeded into 96-well plates at a density of 2.5×10^3 cells per well and allowed to attach overnight. Following attachment, the media was replaced with 50 μL of infection medium (DMEM supplemented with 2% fetal bovine serum and 100 units/mL penicillin and streptomycin). A Tecan D300e digital dispenser was then used to add compounds to the culture using an 8-point 3-fold serial dilution format. The DMSO concentration was normalized to 0.5% for all treatments. Following compound addition, 50 μL of infection medium containing 80 TCID50 HSV-1 was added to the cells and incubated at 37° C. for 4 days. After the incubation, the plates were equilibrated to room temperature, the media was removed, and 60 μL of a 1:1 dilution of Cell titer glow and phosphate buffered saline was added to the cells. Following a 5-minute incubation, cell viability was quantified by measuring luminance using a Tecan Infinite M1000 Pro plate reader.
(§3) Vero cells were cultured in Dulbecco's Modified Eagle Medium (DMEM) supplemented with 10% foetal bovine serum and 100 units/mL penicillin and streptomycin. The cells were passaged 2-3 times per week to maintain sub-confluent densities.
Vero cells were seeded into 96-well plates at a density of 2.5×10^3 cells per well and allowed to attach overnight. Following attachment, the media was replaced with 50 μL of infection medium (DMEM supplemented with 2% foetal bovine serum and 100 units/mL penicillin and streptomycin). A Tecan D300e digital dispenser was then used to add compounds to the culture using an 8-point 3-fold serial dilution format. The DMSO concentration was normalized to 0.5% for all treatments. […] Following a 5-minute incubation, cell viability was quantified by measuring luminance using a Tecan Infinite M1000 Pro plate reader.

[2] = test system: HSV-2 G strain; test: HSV-2 antiviral assay, cytopathic effect (CPE) inhibition in vero cells; type: cell-based
Method: as §1, §2
(§4) HSV-2 antiviral assay—vero cells were seeded into 96-well plates at a density of 1.0×10^4 cells per well and allowed to attach overnight. Following attachment, the media was replaced with 50 μL of infection medium (DMEM supplemented with 2% fetal bovine serum and 100 units/mL penicillin and streptomycin). A Tecan D300e digital dispenser was then used to add compounds to the culture using an 8-point 3-fold serial dilution format. The DMSO concentration was normalized to 0.5% for all treatments. Following compound addition, 50 μL of infection medium containing 160 TCID50 HSV-2 G strain was added to the cells and incubated at 37° C. for 5 days. After the incubation, 10 μL/well of WST-8 chromogenic reagent was added and the plates incubated at 37° C. for 3 hours. Following the incubation, cell viability was quantified by measuring the absorbance at 460 nm and 620 nm using a Tecan Infinite M1000 Pro plate reader.
as §3
as §4, with “Vero” for “HSV-2 antiviral assay—vero”, “foetal” for “fetal”

[3] = Example 4: pritelivir aqueous suspension SC PK study in dog; type: in vivo, male non-naïve Beagle dogs; conditions: aqueous suspension (dihydrate), 10 mg/kg, following an initial drug burst
Method: The LC-MS methodology and conditions used to analyse pritelivir in plasma samples from the PK studies described in Examples 1 to 5 are provided in Table 1.
An aqueous suspension of crystalline pritelivir free base (dihydrate) in a 0.9% NaCl+0.5% poloxamer 188 vehicle at a concentration of 5.0 mg/mL was prepared as follows: • 1) Vehicle (0.9% w/w NaCl and 0.5% w/w poloxamer 188) was prepared by dissolving NaCl and poloxamer 188 in water. • 2) Appropriate amount of crystalline pritelivir free base (dihydrate) was weighed and added to the vehicle. • 3) Mixture was stirred for 15 minutes, then vortexed for 1 minute and then sonicated for 10 minutes. • 4) The final dosing formulation was a homogenous white cloudy suspension.
Male non-naïve beagles were used for the dog PK study. The animals had free access to food and water. The prepared suspension was administered via subcutaneous injection to each animal group (n=3) with a dosing volume of 2 mL/kg to achieve a 10 mg/kg dose.
At each time point, approximately 0.5 mL of whole blood was collected into K2EDTA tubes. Blood samples were put on ice and centrifuged at 2000 g for 5 min to obtain plasma samples within 15 minutes. Plasma samples were stored at approximately −70° C. until analyzed by LC-MS.

[4] = test system: recurrent genital HSV-2; conditions: 28 days daily oral dosing; pritelivir 100 mg (after 400 mg loading dose), valacyclovir 500 mg; cited from earlier work
[5] = Human alphaherpesvirus 1, Vero, 96 h
[6] = Human alphaherpesvirus 2, Vero, 120 h, CPE assay, vero cells, 5 days, read-out: in vitro EC50 against HSV-2

Row | EC50 [1] [nM] | EC50 [1, 5] [nM] | EC50 ([2]; CPE assay, vero cells, 5 days, read-out: in vitro EC50 against HSV-2) [nM] | EC50 [2, 6] [nM] | EC50 ([2]; Human alphaherpesvirus 2, Vero, Example 9, n=35, read-out: EC50 in the HSV-2 antiviral assay) [nM] | plasma exposure after SC administration [3] | Structure (SMILES) | HSV shedding, % of genital swabs analysed [4] [%]
1 | 15 | ~19 | 13 | ~11 | 11 | – | Cc1nc(N2CCCN(c3ccc(-c4cc(F)ccc4F)cc3)C2=O)sc1S(N)(=O)=O [Compound 1, 2-(3-(2′,5′-difluoro-[1,1′-biphenyl]-4-yl)-2-oxotetrahydropyrimidin-1(2H)-yl)-4-methylthiazole-5-sulfonamide] | –
2 | – | 47 | – | 55 | – | prolonged exposure was achieved | Cc1nc(N(C)C(=O)Cc2ccc(-c3ccccn3)cc2)sc1S(N)(=O)=O [pritelivir, N-methyl-N-(4-methyl-5-sulfamoyl-1,3-thiazol-2-yl)-2-[4-(pyridin-2-yl)phenyl]acetamide] | 2.4

— US20260216057A1, “PHARMACEUTICAL COMPOSITIONS FOR HERPES VIRUS” (priority 2022, published 2026)
